# According to ChEMBL document CHEMBL1909046, “DrugMatrix in vitro pharmacology data”:
# pIC50, pKi: −log10 of the molar value.
# Molecular target: T1, Amine oxidase [flavin-containing] A (Homo sapiens, UniProt P21397)
# T1 sequence (P21397 whole entry): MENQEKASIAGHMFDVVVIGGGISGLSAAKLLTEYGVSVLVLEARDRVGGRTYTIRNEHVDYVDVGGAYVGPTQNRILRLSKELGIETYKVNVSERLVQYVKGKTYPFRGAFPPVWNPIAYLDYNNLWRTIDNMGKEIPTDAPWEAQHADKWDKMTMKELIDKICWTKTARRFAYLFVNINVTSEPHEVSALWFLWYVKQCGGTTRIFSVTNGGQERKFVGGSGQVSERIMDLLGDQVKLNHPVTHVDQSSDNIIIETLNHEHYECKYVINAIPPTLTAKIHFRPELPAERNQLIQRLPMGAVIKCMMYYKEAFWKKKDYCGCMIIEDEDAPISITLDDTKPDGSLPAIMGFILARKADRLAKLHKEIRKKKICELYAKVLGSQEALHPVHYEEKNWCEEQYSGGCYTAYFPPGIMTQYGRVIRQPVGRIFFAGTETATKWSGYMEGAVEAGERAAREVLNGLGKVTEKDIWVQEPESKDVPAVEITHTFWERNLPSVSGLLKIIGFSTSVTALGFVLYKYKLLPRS
# Assay: DRUGMATRIX: Monoamine Oxidase MAO-A enzyme inhibition (substrate: Kynuramine)
# Design: species or system BTI-TN-5B1-4
# Settings: bti-tn-5b1-4; Not Active = under 50% inhibition at 10 µM
Compound,IC50,Ki
CN(C)C(=O)Oc1cc(OC(=O)N(C)C)cc(C(O)CNC(C)(C)C)c1 (centres undefined) [BAMBUTEROL],Not Active,
CC(C)[C@H]1C(=O)N2CCC[C@H]2[C@]2(O)O[C@](NC(=O)[C@@H]3C=C4c5cccc6[nH]cc(c56)C[C@H]4N(C)C3)(C(C)C)C(=O)N12 [ERGOCORNINE],Not Active,
CN(C)CCCN1c2ccccc2Sc2ccccc21 [PROMAZINE],Not Active,
C[C@](N)(Cc1ccc(O)c(O)c1)C(=O)O [METHYLDOPA],Not Active,
CCOC(=O)C1=C(COCCN)NC(C)=C(C(=O)OC)C1c1ccccc1Cl (centres undefined) [AMLODIPINE],Not Active,
LEAD (II) ACETATE,Not Active,Not Active
CC(O)CO (centres undefined) [PROPYLENE GLYCOL],Not Active,

# Molecular target: Vasopressin V1a receptor (Homo sapiens, UniProt P37288); further: in other assays of this panel Not Active means under 50% inhibition at 10 µM
# Type: cell membranes, Membrane
# Settings: hek293
# Chain of Vasopressin V1a receptor (P37288 whole entry): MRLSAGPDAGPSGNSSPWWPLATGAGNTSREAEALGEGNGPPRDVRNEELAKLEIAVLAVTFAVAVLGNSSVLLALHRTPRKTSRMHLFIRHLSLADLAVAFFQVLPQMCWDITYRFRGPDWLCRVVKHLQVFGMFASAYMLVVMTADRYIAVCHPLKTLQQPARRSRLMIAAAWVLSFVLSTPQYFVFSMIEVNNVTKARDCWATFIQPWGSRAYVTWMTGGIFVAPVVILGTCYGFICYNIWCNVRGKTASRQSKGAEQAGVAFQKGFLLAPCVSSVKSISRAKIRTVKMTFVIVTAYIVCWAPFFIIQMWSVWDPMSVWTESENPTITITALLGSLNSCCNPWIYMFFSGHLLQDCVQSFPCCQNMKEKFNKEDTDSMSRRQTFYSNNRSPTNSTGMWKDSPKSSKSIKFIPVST
Compound,IC50,Ki
CN(C)C(=O)Oc1cc(OC(=O)N(C)C)cc(C(O)CNC(C)(C)C)c1 (centres undefined) [BAMBUTEROL],Not Active,
CC(C)[C@H]1C(=O)N2CCC[C@H]2[C@]2(O)O[C@](NC(=O)[C@@H]3C=C4c5cccc6[nH]cc(c56)C[C@H]4N(C)C3)(C(C)C)C(=O)N12 [ERGOCORNINE],Not Active,
CN(C)CCCN1c2ccccc2Sc2ccccc21 [PROMAZINE],Not Active,
C[C@](N)(Cc1ccc(O)c(O)c1)C(=O)O [METHYLDOPA],Not Active,
CCOC(=O)C1=C(COCCN)NC(C)=C(C(=O)OC)C1c1ccccc1Cl (centres undefined) [AMLODIPINE],Not Active,
LEAD (II) ACETATE,Not Active,Not Active
CC(O)CO (centres undefined) [PROPYLENE GLYCOL],Not Active,

# Molecular target: Delta-type opioid receptor (Homo sapiens, UniProt P41143); further: in other assays of this panel Not Active means under 50% inhibition at 10 µM
# Type: cell membranes, HEK293, Membrane
# Settings: hek293
# Chain of Delta-type opioid receptor (P41143 whole entry): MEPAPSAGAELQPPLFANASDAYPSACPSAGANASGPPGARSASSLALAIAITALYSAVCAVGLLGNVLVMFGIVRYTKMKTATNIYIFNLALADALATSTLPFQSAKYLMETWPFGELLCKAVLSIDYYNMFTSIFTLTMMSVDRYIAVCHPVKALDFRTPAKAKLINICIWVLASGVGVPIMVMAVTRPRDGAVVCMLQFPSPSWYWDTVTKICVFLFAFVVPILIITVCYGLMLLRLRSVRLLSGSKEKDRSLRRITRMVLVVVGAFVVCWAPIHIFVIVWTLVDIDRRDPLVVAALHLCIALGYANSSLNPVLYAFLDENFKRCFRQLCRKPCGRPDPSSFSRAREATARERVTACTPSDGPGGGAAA
Compound,IC50,Ki
CN(C)C(=O)Oc1cc(OC(=O)N(C)C)cc(C(O)CNC(C)(C)C)c1 (centres undefined) [BAMBUTEROL],Not Active,
CC(C)[C@H]1C(=O)N2CCC[C@H]2[C@]2(O)O[C@](NC(=O)[C@@H]3C=C4c5cccc6[nH]cc(c56)C[C@H]4N(C)C3)(C(C)C)C(=O)N12 [ERGOCORNINE],Not Active,
CN(C)CCCN1c2ccccc2Sc2ccccc21 [PROMAZINE],Not Active,
C[C@](N)(Cc1ccc(O)c(O)c1)C(=O)O [METHYLDOPA],Not Active,
CCOC(=O)C1=C(COCCN)NC(C)=C(C(=O)OC)C1c1ccccc1Cl (centres undefined) [AMLODIPINE],Not Active,
LEAD (II) ACETATE,Not Active,Not Active
CC(O)CO (centres undefined) [PROPYLENE GLYCOL],Not Active,

# Molecular target: T2, Calcitonin receptor (Homo sapiens, UniProt P30988); further: in other assays of this panel Not Active means under 50% inhibition at 10 µM
# T2 sequence (P30988 whole entry): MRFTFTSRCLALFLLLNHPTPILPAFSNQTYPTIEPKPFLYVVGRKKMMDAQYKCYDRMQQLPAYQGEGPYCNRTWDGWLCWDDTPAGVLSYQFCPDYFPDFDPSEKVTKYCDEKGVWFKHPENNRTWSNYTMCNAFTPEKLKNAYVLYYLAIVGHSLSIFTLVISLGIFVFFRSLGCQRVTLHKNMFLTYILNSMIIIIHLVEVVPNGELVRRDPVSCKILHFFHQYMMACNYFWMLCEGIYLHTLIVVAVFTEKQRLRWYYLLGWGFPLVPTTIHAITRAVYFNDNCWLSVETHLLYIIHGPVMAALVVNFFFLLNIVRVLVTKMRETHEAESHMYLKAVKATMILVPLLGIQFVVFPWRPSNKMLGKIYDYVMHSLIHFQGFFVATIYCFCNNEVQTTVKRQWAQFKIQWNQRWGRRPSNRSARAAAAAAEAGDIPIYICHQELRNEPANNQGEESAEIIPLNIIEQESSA
# Type: cell membranes, Membrane
# Settings: t47d
Compound,IC50,Ki
CN(C)C(=O)Oc1cc(OC(=O)N(C)C)cc(C(O)CNC(C)(C)C)c1 (centres undefined) [BAMBUTEROL],Not Active,
CC(C)[C@H]1C(=O)N2CCC[C@H]2[C@]2(O)O[C@](NC(=O)[C@@H]3C=C4c5cccc6[nH]cc(c56)C[C@H]4N(C)C3)(C(C)C)C(=O)N12 [ERGOCORNINE],Not Active,
CN(C)CCCN1c2ccccc2Sc2ccccc21 [PROMAZINE],Not Active,
C[C@](N)(Cc1ccc(O)c(O)c1)C(=O)O [METHYLDOPA],Not Active,
CCOC(=O)C1=C(COCCN)NC(C)=C(C(=O)OC)C1c1ccccc1Cl (centres undefined) [AMLODIPINE],Not Active,
LEAD (II) ACETATE,Not Active,Not Active
CC(O)CO (centres undefined) [PROPYLENE GLYCOL],Not Active,

# Molecular target: C-C chemokine receptor type 2 (Homo sapiens, UniProt P41597); further: in other assays of this panel Not Active means under 50% inhibition at 10 µM
# Type: cell membranes, CHO-K1, Membrane
# Settings: cho-k1
# Chain of C-C chemokine receptor type 2 (P41597 whole entry): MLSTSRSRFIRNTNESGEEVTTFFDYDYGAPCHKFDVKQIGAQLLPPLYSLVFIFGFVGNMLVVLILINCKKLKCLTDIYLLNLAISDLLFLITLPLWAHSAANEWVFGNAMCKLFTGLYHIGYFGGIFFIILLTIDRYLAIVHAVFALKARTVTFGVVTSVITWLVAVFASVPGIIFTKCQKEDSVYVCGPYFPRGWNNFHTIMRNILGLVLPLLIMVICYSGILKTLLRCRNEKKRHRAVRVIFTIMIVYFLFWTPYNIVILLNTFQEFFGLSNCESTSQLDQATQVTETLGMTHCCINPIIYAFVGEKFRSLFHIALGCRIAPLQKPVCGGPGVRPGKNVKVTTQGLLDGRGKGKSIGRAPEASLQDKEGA
Compound,IC50,Ki
CN(C)C(=O)Oc1cc(OC(=O)N(C)C)cc(C(O)CNC(C)(C)C)c1 (centres undefined) [BAMBUTEROL],Not Active,
CC(C)[C@H]1C(=O)N2CCC[C@H]2[C@]2(O)O[C@](NC(=O)[C@@H]3C=C4c5cccc6[nH]cc(c56)C[C@H]4N(C)C3)(C(C)C)C(=O)N12 [ERGOCORNINE],Not Active,
CN(C)CCCN1c2ccccc2Sc2ccccc21 [PROMAZINE],Not Active,
C[C@](N)(Cc1ccc(O)c(O)c1)C(=O)O [METHYLDOPA],Not Active,
CCOC(=O)C1=C(COCCN)NC(C)=C(C(=O)OC)C1c1ccccc1Cl (centres undefined) [AMLODIPINE],Not Active,
LEAD (II) ACETATE,Not Active,Not Active
CC(O)CO (centres undefined) [PROPYLENE GLYCOL],Not Active,

# Molecular target: Substance-P receptor (Homo sapiens, UniProt P25103); further: in other assays of this panel Not Active means under 50% inhibition at 10 µM
# Type: cell membranes, CHO, Membrane
# Settings: cho
# Chain of Substance-P receptor (P25103 whole entry): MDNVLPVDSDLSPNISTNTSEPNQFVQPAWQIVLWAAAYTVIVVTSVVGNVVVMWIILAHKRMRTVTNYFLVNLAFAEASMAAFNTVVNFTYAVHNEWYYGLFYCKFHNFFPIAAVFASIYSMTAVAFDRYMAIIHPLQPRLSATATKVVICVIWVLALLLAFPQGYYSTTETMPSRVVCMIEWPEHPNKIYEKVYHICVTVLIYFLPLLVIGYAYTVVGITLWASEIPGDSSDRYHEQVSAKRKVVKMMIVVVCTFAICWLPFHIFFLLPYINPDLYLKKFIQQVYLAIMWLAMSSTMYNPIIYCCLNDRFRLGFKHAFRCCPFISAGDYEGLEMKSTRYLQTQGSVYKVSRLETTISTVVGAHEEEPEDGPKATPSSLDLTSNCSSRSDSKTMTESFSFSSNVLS
Compound,IC50,Ki
CN(C)C(=O)Oc1cc(OC(=O)N(C)C)cc(C(O)CNC(C)(C)C)c1 (centres undefined) [BAMBUTEROL],Not Active,
CC(C)[C@H]1C(=O)N2CCC[C@H]2[C@]2(O)O[C@](NC(=O)[C@@H]3C=C4c5cccc6[nH]cc(c56)C[C@H]4N(C)C3)(C(C)C)C(=O)N12 [ERGOCORNINE],Not Active,
CN(C)CCCN1c2ccccc2Sc2ccccc21 [PROMAZINE],Not Active,
C[C@](N)(Cc1ccc(O)c(O)c1)C(=O)O [METHYLDOPA],Not Active,
CCOC(=O)C1=C(COCCN)NC(C)=C(C(=O)OC)C1c1ccccc1Cl (centres undefined) [AMLODIPINE],Not Active,
LEAD (II) ACETATE,Not Active,Not Active
CC(O)CO (centres undefined) [PROPYLENE GLYCOL],Not Active,

# Molecular target: T3, C-X-C chemokine receptor type 1 (Homo sapiens, UniProt P25024); further: in other assays of this panel Not Active means under 50% inhibition at 10 µM
# T3 sequence (P25024 whole entry): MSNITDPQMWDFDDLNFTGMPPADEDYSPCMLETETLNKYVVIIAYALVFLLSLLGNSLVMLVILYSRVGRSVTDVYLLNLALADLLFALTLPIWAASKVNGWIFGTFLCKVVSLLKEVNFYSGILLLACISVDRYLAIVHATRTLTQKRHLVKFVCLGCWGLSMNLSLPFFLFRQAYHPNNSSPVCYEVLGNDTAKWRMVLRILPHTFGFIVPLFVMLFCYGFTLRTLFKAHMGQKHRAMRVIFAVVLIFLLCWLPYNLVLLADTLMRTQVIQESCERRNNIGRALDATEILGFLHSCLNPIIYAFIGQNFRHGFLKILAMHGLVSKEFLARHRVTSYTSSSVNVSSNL
# Settings: not given
Compound,IC50,Ki
CN(C)C(=O)Oc1cc(OC(=O)N(C)C)cc(C(O)CNC(C)(C)C)c1 (centres undefined) [BAMBUTEROL],Not Active,
CC(C)[C@H]1C(=O)N2CCC[C@H]2[C@]2(O)O[C@](NC(=O)[C@@H]3C=C4c5cccc6[nH]cc(c56)C[C@H]4N(C)C3)(C(C)C)C(=O)N12 [ERGOCORNINE],Not Active,
CN(C)CCCN1c2ccccc2Sc2ccccc21 [PROMAZINE],Not Active,
C[C@](N)(Cc1ccc(O)c(O)c1)C(=O)O [METHYLDOPA],Not Active,
CCOC(=O)C1=C(COCCN)NC(C)=C(C(=O)OC)C1c1ccccc1Cl (centres undefined) [AMLODIPINE],Not Active,
LEAD (II) ACETATE,Not Active,Not Active
CC(O)CO (centres undefined) [PROPYLENE GLYCOL],Not Active,

# Test system: not listed separately
# Assay: DRUGMATRIX: Calcium Channel Type L, Dihydropyridine radioligand binding (ligand: [3H] Nitrendipine)
# Type: cell membranes, Rattus norvegicus, Wistar, Cerebral cortex, Membrane
# Settings: Not Active = under 50% inhibition at 10 µM
Compound,IC50,Ki
CN(C)C(=O)Oc1cc(OC(=O)N(C)C)cc(C(O)CNC(C)(C)C)c1 (centres undefined) [BAMBUTEROL],Not Active,Not Active
CC(C)[C@H]1C(=O)N2CCC[C@H]2[C@]2(O)O[C@](NC(=O)[C@@H]3C=C4c5cccc6[nH]cc(c56)C[C@H]4N(C)C3)(C(C)C)C(=O)N12 [ERGOCORNINE],Not Active,Not Active
CN(C)CCCN1c2ccccc2Sc2ccccc21 [PROMAZINE],Not Active,Not Active
C[C@](N)(Cc1ccc(O)c(O)c1)C(=O)O [METHYLDOPA],Not Active,Not Active
LEAD (II) ACETATE,Not Active,Not Active
CC(O)CO (centres undefined) [PROPYLENE GLYCOL],Not Active,Not Active

# Same assay, conditions: Not Active = under 50% inhibition at 10 µM; read-out: IC50
row,Compound,pIC50
1,CCOC(=O)C1=C(COCCN)NC(C)=C(C(=O)OC)C1c1ccccc1Cl (centres undefined) [AMLODIPINE],7.51

# Same assay, conditions: Not Active = under 50% inhibition at 10 µM; read-out: Ki
row,Compound,pKi
1,CCOC(=O)C1=C(COCCN)NC(C)=C(C(=O)OC)C1c1ccccc1Cl (centres undefined) [AMLODIPINE],7.70

# Test system: not listed separately
# Assay: DRUGMATRIX: Tumor Necrosis Factor (TNF), Non-Selective radioligand binding (ligand: [125I] TNF-alpha)
# Type: cell membranes, Membrane
# Settings: u-937; Not Active = under 50% inhibition at 10 µM
Compound,IC50,Ki
CN(C)C(=O)Oc1cc(OC(=O)N(C)C)cc(C(O)CNC(C)(C)C)c1 (centres undefined) [BAMBUTEROL],Not Active,Not Active
CC(C)[C@H]1C(=O)N2CCC[C@H]2[C@]2(O)O[C@](NC(=O)[C@@H]3C=C4c5cccc6[nH]cc(c56)C[C@H]4N(C)C3)(C(C)C)C(=O)N12 [ERGOCORNINE],Not Active,Not Active
CN(C)CCCN1c2ccccc2Sc2ccccc21 [PROMAZINE],Not Active,Not Active
C[C@](N)(Cc1ccc(O)c(O)c1)C(=O)O [METHYLDOPA],Not Active,Not Active
CCOC(=O)C1=C(COCCN)NC(C)=C(C(=O)OC)C1c1ccccc1Cl (centres undefined) [AMLODIPINE],Not Active,Not Active
LEAD (II) ACETATE,Not Active,Not Active
CC(O)CO (centres undefined) [PROPYLENE GLYCOL],Not Active,Not Active
